Experimental data published in EPA's ToxValDB 9.5 (doi:10.2903/j.efsa.2014.3560).
In brackets after ≈: the same amount, converted by molar mass.

Experiments:
[1] = test system: Bibionidae; conditions: chronic/long-term; duration: 28 days; M/F; development
[2] = test system: Canidae; conditions: chronic; duration: 1 years; oral; Dog Other; clinical signs
[3] = test system: Rattus norvegicus; conditions: for LD50: acute, oral, mortality; for NOAEL: reproduction developmental
[4] = test system: Lepomis macrochirus; conditions: acute; duration: 96 hours; mortality
[5] = test system: Colinus virginianus; conditions: acute, oral, mortality
[6] = test system: Anas platyrhynchos
[7] = test system: Pimephales promelas; conditions: chronic/long-term
[8] = test system: Tagia sp.
[9] = test system: Apis mellifera; conditions: acute, duration: 48 hours, mortality
[10] = test system: Typhlodromus pyri; assay: LR50; higher = less toxic; conditions: chronic/long-term; duration: 7 days; mortality
[11] = test system: Aphidius rhopalosiphi; assay: LR50; higher = less toxic; conditions: not reported; mortality

| Structure (SMILES) | NOEC [1] [µg/L] | NOAEL [2] [mg/kg-day] | LD50 ([3]; F) [mg/kg-day] | LD50 ([3]; M) [mg/kg-day] | NOAEL ([3]; body weight) [mg/kg-day] | LC50 [4] [ng/mL] | LD50 ([5]; diet) [mg/kg-day] | LD50 [5] [mg/kg-day] | LD50 ([6]; short-term, oral, feed, mortality) [mg/kg-day] | NOEC [7] [µg/L] | LC50 ([8]; acute, duration: 14 days, mortality) [mg/kg] | NOEC ([8]; chronic/long-term, reproduction) [mg/kg] | LD50 ([9]; dermal) [µg/piece] | LD50 ([9]; oral, unspecified) [µg/piece] | LR50 [10] [g/ha] | LR50 [11] [g/ha] | NOAEL [3] [mg/kg-day] | NOEC ([6]; reproductive, reproduction) [mg/kg-day] |
| --- | --- | --- | --- | --- | --- | --- | --- | --- | --- | --- | --- | --- | --- | --- | --- | --- | --- | --- |
| CC1(C)[C@H](C(=O)O[C@H](C#N)c2cccc(Oc3ccccc3)c2)[C@@H]1/C=C(\Cl)C(F)(F)F [gamma-Cyhalothrin] | 0.0469 | 0.5 | > 55 | > 50 | 0.5 | 0.0354 (≈ 0.0787 nM) | 225 | > 2000 | > 429 | 0.0155 | > 1300 | 0.5 | 0.005 | 4.2 | 0.0006 | 0.23 |  |  |
| CC1(C)C(C=C(Cl)C(F)(F)F)C1C(=O)OC(C#N)c1cccc(Oc2ccccc2)c1 (stereo not drawn) [alpha-Cyhalothrin] |  |  |  |  | 0.5 |  |  |  |  |  |  |  |  |  |  |  | 0.125 |  |
| CC1(C)[C@H](/C=C(\Cl)C(F)(F)F)[C@@H]1C(=O)O[C@@H](C#N)c1cccc(Oc2ccccc2)c1 [lambda-Cyhalothrin] |  | 0.5 |  |  |  |  |  |  |  |  |  |  |  |  |  |  |  | 1.35 |
